Values quoted from earlier work, collected in patent US6444700B1, “Product and method to reduce stress induced immune suppression” (Abbott Laboratories, priority 1998, dated 2002).

In the case of `CC1=C(/C=C/C(C)=C/C=C/C(C)=C/CO)C(C)(C)CCC1` [Vitamin A, retinol], the “sustained daily intake at which signs of toxicity usually appear” value (foods and supplements) is listed as “exceeding 15,000 RE”.
For `[Se]` [selenium], the “intake from foods resulting in fingernail changes and hair loss” value (seleniferous zone of China) is listed as “approximately 5 mg per day”.
In the case of `CC1=C(/C=C/C(C)=C/C=C/C(C)=C/C=C/C=C(C)/C=C/C=C(C)/C=C/C2=C(C)CCCC2(C)C)C(C)(C)CCC1` [β-Carotene], the “toxicity when given in very high doses” value (compared with vitamin A) is listed as “not toxic”.
